Laboratory results from ChEMBL document CHEMBL1136775, “Indole naphthyridinones as inhibitors of bacterial enoyl-ACP reductases FabI and FabK” (J Med Chem, 2003).
In brackets after ≈: the same amount, converted by molar mass.

How the values were obtained:
Haemophilus influenzae = experiment: Antibacterial activity against Haemophilus influenzae Q1; format: functional
[1] = Inhibitory activity against Enoyl-ACP reductase FabI in Haemophilus influenzae
[2] = target: T1, Enoyl-[acyl-carrier-protein] reductase [NADPH] FabI (Staphylococcus aureus, UniProt Q6GI75); experiment: Inhibitory activity against Enoyl-ACP reductase FabI in Staphylococcus aureus
T1 sequence (Q6GI75 whole entry): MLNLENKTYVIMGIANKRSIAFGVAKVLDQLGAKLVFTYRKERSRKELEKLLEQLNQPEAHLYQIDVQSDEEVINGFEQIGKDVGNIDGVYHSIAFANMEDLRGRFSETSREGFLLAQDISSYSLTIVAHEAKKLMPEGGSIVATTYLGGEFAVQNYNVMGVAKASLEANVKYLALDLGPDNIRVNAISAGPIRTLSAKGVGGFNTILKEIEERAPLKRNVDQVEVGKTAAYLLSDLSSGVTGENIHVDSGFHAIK

Staphylococcus aureus [3] = experiment: Antibacterial activity against in Staphylococcus aureus WCUH29; format: functional
Enterococcus faecalis = experiment: Antibacterial activity against Enterococcus faecalis I; format: functional
Staphylococcus aureus [4] = experiment: Antibacterial activity against Staphylococcus aureus WCUH29; format: functional
Streptococcus pneumoniae = experiment: Antibacterial activity against Streptococcus pneumoniae 1629; format: functional
[5] = Inhibitory activity against Enoyl-ACP reductase FabK in Streptococcus pneumoniae; format: functional
Moraxella catarrhalis = experiment: Antibacterial activity against Moraxella catarrhalis; format: functional
Escherichia coli = experiment: Antibacterial activity against Escherichia coli 120AcrAB-; format: functional
[6] = Inhibitory activity against Enoyl-ACP reductase FabI in Escherichia coli; format: functional
[7] = Inhibitory activity against human FASI enzyme; format: functional
Liposome = experiment: Inhibitory activity in liposome lysis assay; format: functional, subcellular, Homo sapiens
A549 = experiment: Cytotoxicity against human A549 lung cells; format: functional, cell-based
Staphylococcus aureus [8] = experiment: Inhibitory activity against Staphylococcus aureus; format: functional

Row | Compound | MIC50 (Haemophilus influenzae) | IC50 [1] | IC50 [2] | MIC50 (Staphylococcus aureus [3]) | MIC50 (Enterococcus faecalis) | MIC50 (Staphylococcus aureus [4]) | MIC50 (Streptococcus pneumoniae) | IC50 [5] | MIC50 (Moraxella catarrhalis) | MIC50 (Escherichia coli) | IC50 [6] | IC50 [7] | IC50 (Liposome) | IC50 (A549) | Ki (Staphylococcus aureus [8])
1 | CC(=O)Nc1ncc(/C=C/C(=O)N(C)Cc2cc3ccccc3n2C)cc1C | > 64 µg/mL | 7600 nM | 940 nM | 2 µg/mL (≈ 5.31 µM) | – | – | – | – | – | – | – | – | – | – | –
2 | Cc1cccc2c(CN(C)C(=O)/C=C/c3cnc4c(c3)CCC(=O)N4)c(C)n(C)c12 | > 64 µg/mL | 70 nM | 20 nM | – | > 64 µg/mL | < 0.001 µg/mL | > 64 µg/mL | > 30000 nM | 2 µg/mL (≈ 4.97 µM) | > 64 µg/mL | < 70 nM | – | – | – | –
3 | CC(=O)Nc1ccc(/C=C/C(=O)N(C)Cc2cc3ccccc3n2C)cn1 | 32 µg/mL (≈ 88.3 µM) | 1300 nM | 300 nM | – | – | 0.12 µg/mL (≈ 0.331 µM) | – | – | – | – | – | – | – | – | –
4 | CN(Cc1cc2ccccc2n1C)C(=O)/C=C/c1ccc(N)nc1 | > 64 µg/mL | 4200 nM | – | – | – | 0.5 µg/mL (≈ 1.56 µM) | – | – | – | – | – | > 100000 nM | 630000 nM | 512 µg/mL (≈ 1600 µM) | –
5 | Oc1cc(Cl)ccc1Oc1ccc(Cl)cc1Cl [TRICLOSAN] | 0.5 µg/mL (≈ 1.73 µM) | – | – | – | 16 µg/mL (≈ 55.3 µM) | 0.03 µg/mL (≈ 0.104 µM) | 16 µg/mL (≈ 55.3 µM) | > 30000 nM | < 0.06 µg/mL | 0.5 µg/mL (≈ 1.73 µM) | – | – | – | – | –
6 | Cc1[nH]c2ccccc2c1CN(C)C(=O)/C=C/c1cnc2c(c1)CCC(=O)N2 | 1 µg/mL (≈ 2.67 µM) | 130 nM | 50 nM | – | 16 µg/mL (≈ 42.7 µM) | 0.016 µg/mL (≈ 0.0427 µM) | 16 µg/mL (≈ 42.7 µM) | 3000 nM | < 0.06 µg/mL | 0.5 µg/mL (≈ 1.34 µM) | < 60 nM | – | – | – | –
7 | CN(Cc1cc2ccccc2n1C)C(=O)/C=C/c1cnc2c(c1)CCCN2 | > 64 µg/mL | 2700 nM | 2300 nM | – | – | 0.5 µg/mL (≈ 1.39 µM) | – | – | – | – | – | – | – | – | –
8 | CN(Cc1cc2ccccc2n1C)C(=O)/C=C/c1cnc2c(c1)CCC(=O)N2 | 32 µg/mL (≈ 85.5 µM) | 560 nM | 50 nM | – | – | 0.03 µg/mL (≈ 0.0801 µM) | – | – | – | – | – | – | – | – | 4.3 nM
9 | Cc1cc(/C=C/C(=O)N(C)Cc2cc3ccccc3n2C)cnc1N | > 64 µg/mL | 6100 nM | 910 nM | – | – | 0.25 µg/mL (≈ 0.748 µM) | – | – | – | – | – | – | – | – | –
10 | Cc1c(CN(C)C(=O)/C=C/c2cnc3c(c2)CCC(=O)N3)c2ccccc2n1C | > 64 µg/mL | 25 nM | 60 nM | – | > 64 µg/mL | < 0.001 µg/mL | > 64 µg/mL | > 30000 nM | < 0.06 µg/mL | 32 µg/mL (≈ 82.4 µM) | 30 nM | – | – | – | –
11 | CN(Cc1cn(C)c2ccccc12)C(=O)/C=C/c1cnc2c(c1)CCC(=O)N2 | 16 µg/mL (≈ 42.7 µM) | 390 nM | 130 nM | – | 16 µg/mL (≈ 42.7 µM) | 0.06 µg/mL (≈ 0.16 µM) | 16 µg/mL (≈ 42.7 µM) | 5000 nM | < 0.06 µg/mL | 8 µg/mL (≈ 21.4 µM) | 70 nM | – | – | – | –
